Our source for the Activity values is ChEMBL document CHEMBL6092158, “Green synthesis of neuroprotective spirocyclic chalcone derivatives and their role in protecting against traumatic optic nerve injury” (Eur J Med Chem, 2024).

The test system of test [1] is R28. As to the kind of experiment: Cytoprotective activity against hydrogen peroxide-induced cytotoxicity in rat R28 cells assessed as increase in cell viability at 10 uM preincubated for 24 hrs followed by incubation with H2O2 for 24 hrs by MTT assay. It counts as functional, cell-based.
Test [2] concerns R28. Put plainly: Cytoprotective activity against glutamate-induced cytotoxicity in rat R28 cells assessed as increase in cell viability at 10 uM incubated for 24 hrs in presence of glutamate by MTT assay. It counts as functional, cell-based. On the technique in general: Tetrazolium assays rely on reduction of a dye to a coloured formazan, in cell work by metabolically active cells.

Calls of active or inactive are those of the source. The rule behind the calls is not given here.

`CN1C[C@H](c2ccc(O)c(O)c2)[C@@H](C(=O)c2ccc(Br)cc2F)[C@]12C(=O)Nc1ccccc12`: the outcome in test [1] and in test [2] was Active.
Regarding `CN1C[C@H](c2ccc(O)c(O)c2)[C@@H](C(=O)c2ccccc2)[C@]12C(=O)Nc1ccccc12`, the result in test [1] and in test [2] was Active.
Take `CN1C[C@H](c2ccc(O)c(O)c2)[C@@H](C(=O)c2cccc(C(F)(F)F)c2)[C@]12C(=O)Nc1ccccc12`: the outcome in test [1] and in test [2] was inactive.
Consider `CN1C[C@H](c2ccc(O)c(O)c2)[C@@H](C(=O)c2cccc(Br)c2)[C@]12C(=O)Nc1ccccc12`, for which the outcome in test [1] and in test [2] was Active.
Take `COc1ccc(C(=O)[C@@H]2[C@@H](c3ccc(O)c(O)c3)CN(C)[C@@]23C(=O)Nc2ccccc23)cc1OC`: the result in test [1] and in test [2] was Active.
Take `COc1ccc(C(=O)[C@@H]2[C@@H](c3ccc(O)c(O)c3)CN(C)[C@@]23C(=O)Nc2ccccc23)cc1`: the outcome in test [1] and in test [2] was Active.
In the case of `CN1C[C@H](c2ccc(O)c(O)c2)[C@@H](C(=O)c2cccc(F)c2)[C@]12C(=O)Nc1ccccc12`, the result in test [1] and in test [2] was Active.
Regarding `CN1C[C@H](c2ccc(O)c(O)c2)[C@@H](C(=O)c2ccc([N+](=O)[O-])cc2)[C@]12C(=O)Nc1ccccc12`, the result in test [1] and in test [2] was inactive.
On to `CCCc1ccc(C(=O)[C@@H]2[C@@H](c3ccc(O)c(O)c3)CN(C)[C@@]23C(=O)Nc2ccccc23)cc1`, for which the outcome in test [1] and in test [2] was Active.
For the compound `CN1C[C@H](c2ccc(O)c(O)c2)[C@@H](C(=O)c2ccc(Cl)cc2)[C@]12C(=O)Nc1ccccc12`, the result in test [1] and in test [2] was Active.
For the compound `CN1C[C@H](c2ccc(O)c(O)c2)[C@@H](C(=O)c2ccc(S(C)(=O)=O)cc2)[C@]12C(=O)Nc1ccccc12`, the outcome in test [1] and in test [2] was inactive.
For `CN1C[C@H](c2ccc(O)c(O)c2)[C@@H](C(=O)c2ccc(OC(F)(F)F)cc2)[C@]12C(=O)Nc1ccccc12`, the outcome in test [1] and in test [2] was Active.
For the compound `CN1C[C@H](c2ccc(O)c(O)c2)[C@@H](C(=O)c2ccc(O)cc2)[C@]12C(=O)Nc1ccccc12`, the outcome in test [1] and in test [2] was Active.
`COc1cc(C(=O)[C@@H]2[C@@H](c3ccc(O)c(O)c3)CN(C)[C@@]23C(=O)Nc2ccccc23)ccc1O`: the result in test [1] and in test [2] was Active.
For the compound `CN1C[C@H](c2ccc(O)c(O)c2)[C@@H](C(=O)c2ccc(F)cc2)[C@]12C(=O)Nc1ccccc12`, the result in test [1] and in test [2] was Active.
For the compound `COc1cc(C(=O)[C@@H]2[C@@H](c3ccc(O)c(O)c3)CN(C)[C@@]23C(=O)Nc2ccccc23)cc(OC)c1OC`, the outcome in test [1] and in test [2] was Active.
Take `CN1C[C@H](c2ccc(O)c(O)c2)[C@@H](C(=O)c2ccccc2C(F)(F)F)[C@]12C(=O)Nc1ccccc12`: the result in test [1] and in test [2] was inactive.
In the case of `CN1C[C@H](c2ccc(O)c(O)c2)[C@@H](C(=O)c2cccc(O)c2)[C@]12C(=O)Nc1ccccc12`, the outcome in test [1] and in test [2] was Active.
Take `CN1C[C@H](c2ccc(O)c(O)c2)[C@@H](C(=O)c2ccc(Br)cc2)[C@]12C(=O)Nc1ccccc12`: the outcome in test [1] and in test [2] was Active.
As for `CN1C[C@H](c2ccc(O)c(O)c2)[C@@H](C(=O)c2ccc(Cl)cc2Cl)[C@]12C(=O)Nc1ccccc12`, the result in test [1] and in test [2] was Active.
